Several values for one entry are separate records, joined by “and”; a condition that tells them apart may be missing. Identical values can stand only once. Like-named read-outs stand apart in the source and are kept apart here.
Tests used:
Assay type in all cases: in vivo
Brassica napus (BRSNN) = experiment: Pre-harvest desiccation of crop plants; conditions: Table E, evaluated after 7 and 14 days (which not stated), 100=total damage to plant, 0=no damage
Protocol: (§1) Seeds of a variety of test species were sown in standard loam based soil in pots. After cultivation from between 21 and 28 days (post-emergence) under controlled conditions in a glasshouse (at 24/16° C., day/night; 14 hours light; 65% humidity) for warm climate species and (at 20/16° C. day/night; 15 hours light; 65% humidity) for cool climate species.
(§2) The plants were sprayed with an aqueous spray solution derived from dissolving the technical active ingredient formula in a small amount of acetone and a special solvent and emulsifier mixture referred to as IF50 (11.12% Emulsogen EL360 TM+44.44% N-methylpyrrolidone+44.44% Dowanol DPM glycol ether), to create a 50 g/I solution which was then diluted to required concentration using a solution of 1% Empicol ESC70 (Sodium lauryl ether sulphate)+1% ammonium sulphate in water as diluent.
(§3) The delivery of the aqueous spray solution was via a laboratory track sprayer which delivered the aqueous spray composition at a rate of 200 litres per hectare, using a flat fan nozzle (Teejet 11002VS) and an application volume of 200 litre/ha (at 2 bar).
(§4) The test plants were then grown in a glasshouse under controlled conditions (at 24/16° C., day/night; 14 hours light; 65% humidity) for warm climate species and (at 20/16° C. day/night; 15 hours light; 65% humidity) for cool climate species and watered twice daily. After 7 and 14 days the test was evaluated (100=total damage to plant; 0=no damage to plant).
(§5) A value of n/t indicates not tested.
(§6) Glycine Max (GLXMA), Solanum turberosum (SOLTU), Gossypium hirsutum (GOSHI), Brassica napus (BRSNN), Helianthus annus (HELAN)

[1] = system: Gossypium hirsutum (GOSHI); experiment: Pre-harvest desiccation of crop plants; conditions: Table E, evaluated after 7 and 14 days (which not stated), 100=total damage to plant, 0=no damage
Protocol: as §1, §2, §3, §4, §5, §6

Glycine Max (GLXMA) = experiment: Pre-harvest desiccation of crop plants; conditions: Table E, evaluated after 7 and 14 days (which not stated), 100=total damage to plant, 0=no damage
Protocol: as §1, §2, §3, §4, §5, §6

[2] = system: Solanum turberosum (SOLTU); experiment: Pre-harvest desiccation of crop plants; conditions: Table E, evaluated after 7 and 14 days (which not stated), 100=total damage to plant, 0=no damage
Protocol: as §1, §2, §3, §4, §5, §6

[3] = system: Euphorbia heterophylla (EPHHL); experiment: Post-emergence efficacy, Method A; conditions: Euphorbia heterophylla, post-emergence, 312 h, evaluated after 13 days
In short: (§7)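 Visual damage score, 0 (no damage) to 100 (total), taken 13 d after spraying. Pot-grown plants at 14 d post-sowing received an aqueous spray from a 50 g/l acetone/IF50 solution diluted in 0.25% or 1% Empicol ESC70 + 1% ammonium sulphate; glasshouse 24/16 °C, 14 h light, 65% RH, watered twice daily.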

[4] = system: Amaranthus palmeri (AMAPA); experiment: Post-emergence efficacy, Method A; conditions: Amaranthus palmeri, post-emergence, 312 h, evaluated after 13 days
In short: as §7

Lolium perenne (LOLPE) = experiment: Post-emergence efficacy, Method A; conditions: Lolium perenne, post-emergence, 312 h, evaluated after 13 days
In short: as §7

[5] = system: Chenopodium album (CHEAL); experiment: Post-emergence efficacy, Method A; conditions: Chenopodium album, post-emergence, 312 h, evaluated after 13 days
In short: as §7

Setaria faberi (SETFA) = experiment: Post-emergence efficacy, Method A; conditions: Setaria faberi, post-emergence, 312 h, evaluated after 13 days
In short: as §7

[6] = system: Echinochloa crus-galli (ECHCG); experiment: Post-emergence efficacy, Method A; conditions: Echinochloa crus-galli, post-emergence, 312 h, evaluated after 13 days
In short: as §7

Eleusine indica (ELEIN) = experiment: Post-emergence efficacy, Method A; conditions: Eleusine indica, post-emergence, 312 h, evaluated after 13 days
In short: as §7

[7] = system: Ipomoea hederacea (IPOHE); experiment: Post-emergence efficacy, Method A; conditions: Ipomoea hederacea, post-emergence, 312 h, evaluated after 13 days
In short: as §7

[8] = system: Digitaria sanguinalis (DIGSA); experiment: Post-emergence efficacy, Method A; conditions: Digitaria sanguinalis, post-emergence, 312 h, evaluated after 13 days
In short: as §7

[9] = Application rate 500 g/Ha, 100=total damage to plant, 0=no damage to plant, read-out: Control of weed species after post-emergence application, EPHHL
[10] = Application rate 500 g/Ha, 100=total damage to plant, 0=no damage to plant, read-out: Control of weed species after post-emergence application, AMAPA
[11] = Application rate 500 g/Ha, 100=total damage to plant, 0=no damage to plant, read-out: Control of weed species after post-emergence application, LOLPE
[12] = Application rate 500 g/Ha, 100=total damage to plant, 0=no damage to plant, read-out: Control of weed species after post-emergence application, CHEAL
[13] = Application rate 500 g/Ha, 100=total damage to plant, 0=no damage to plant, read-out: Control of weed species after post-emergence application, SETFA
[14] = Application rate 500 g/Ha, 100=total damage to plant, 0=no damage to plant, read-out: Control of weed species after post-emergence application, ECHCG
[15] = Application rate 500 g/Ha, 100=total damage to plant, 0=no damage to plant, read-out: Control of weed species after post-emergence application, ELEIN
[16] = Application rate 500 g/Ha, 100=total damage to plant, 0=no damage to plant, read-out: Control of weed species after post-emergence application, IPOHE
[17] = Application rate 500 g/Ha, 100=total damage to plant, 0=no damage to plant, read-out: Control of weed species after post-emergence application, DIGSA

SMILES	Post-emergence dessication efficacy, BRSNN (Brassica napus (BRSNN); 150 g/Ha)	Post-emergence dessication efficacy, BRSNN (Brassica napus (BRSNN); 300 g/Ha)	Post-emergence dessication efficacy, BRSNN (Brassica napus (BRSNN); 600 g/Ha)	Post-emergence dessication efficacy, GOSHI ([1]; 600 g/Ha)	Post-emergence dessication efficacy, GLXMA (Glycine Max (GLXMA); 150 g/Ha)	Post-emergence dessication efficacy, GLXMA (Glycine Max (GLXMA); 300 g/Ha)	Post-emergence dessication efficacy, GLXMA (Glycine Max (GLXMA); 600 g/Ha)	pest or weed control at 500 g/ha [3, 9]	pest or weed control at 500 g/ha [4, 10]	pest or weed control at 500 g/ha (Lolium perenne (LOLPE); [11])	pest or weed control at 500 g/ha [5, 12]	pest or weed control at 500 g/ha (Setaria faberi (SETFA); [13])	pest or weed control at 500 g/ha [6, 14]	pest or weed control at 500 g/ha (Eleusine indica (ELEIN); [15])	pest or weed control at 500 g/ha [7, 16]	pest or weed control at 500 g/ha [8, 17]	further results
Cl.O=C(O)CC[n+]1ccc(-c2cccnn2)cn1.[Cl-] [Compound A234, 3-(4-pyridazin-1-ium-3-ylpyridazin-1-ium-1-yl)propanoic acid dichloride]	99	100	100	100 and 50	97 and 52	97 and 67	97 and 63										Post-emergence dessication efficacy, BRSNN (Brassica napus (BRSNN); 75 g/Ha): 77; Post-emergence dessication efficacy, GOSHI ([1]; 75 g/Ha): 33; Post-emergence dessication efficacy, GLXMA (Glycine Max (GLXMA); 75 g/Ha): 25; Post-emergence dessication efficacy, SOLTU ([2]; 75 g/Ha): 7
O=S(=O)([O-])CC[n+]1ccc(-c2ncccn2)cn1 [Compound A1, 2-(4-pyrimidin-2-ylpyridazin-1-ium-1-yl)ethanesulfonate]	33	55	70	96	68	94	98										Post-emergence dessication efficacy, GOSHI ([1]; 150 g/Ha): 99; Post-emergence dessication efficacy, GOSHI ([1]; 300 g/Ha): 98; Post-emergence dessication efficacy, SOLTU ([2]; 150 g/Ha): 38; Post-emergence dessication efficacy, SOLTU ([2]; 300 g/Ha): 90; Post-emergence dessication efficacy, SOLTU ([2]; 600 g/Ha): 60
O=S(=O)([O-])CC[n+]1ccc(-c2cccnn2)cn1 [Compound A5, 2-(4-pyridazin-3-ylpyridazin-1-ium-1-yl)ethanesulfonate]	50	72	82	100	83	93	100										Post-emergence dessication efficacy, GOSHI ([1]; 150 g/Ha): 82; Post-emergence dessication efficacy, GOSHI ([1]; 300 g/Ha): 98; Post-emergence dessication efficacy, SOLTU ([2]; 150 g/Ha): 27; Post-emergence dessication efficacy, SOLTU ([2]; 300 g/Ha): 53; Post-emergence dessication efficacy, SOLTU ([2]; 600 g/Ha): 60
O=S(=O)([O-])CC[n+]1ccc(-c2nccc(C3CC3)n2)cn1 [Compound A50]								90%	100%	60%	20%	60%	40%	90%	50%	50%	
Cc1cncc(-c2cc[n+](CCC(=O)O)nc2)n1 [Compound A85]								100%	90%	70%	90%	90%	70%	90%	30%	90%	
CNC(=O)c1ccnc(-c2cc[n+](CCC(=O)[O-])nc2)n1 [Compound A59]								100%	90%	70%	90%	100%	80%	90%	80%	100%	
CCOP(=O)(CC[n+]1ccc(-c2cnccn2)cn1)OCC [Compound A8]								10%	10%	0%	10%	20%	10%	20%	10%	20%	
CC(C)(CC(=O)O)[n+]1ccc(-c2ccncn2)cn1 [Compound A189]																	pest or weed control at 500 g/ha ([3]; Application Rate 500 g/Ha, Method A, read-out: Control of weed species after post-emergence application, EPHHL (100=total damage to plant; 0=no damage to plant)): 90%; pest or weed control at 500 g/ha ([4]; Application Rate 500 g/Ha, Method A, read-out: Control of weed species after post-emergence application, AMAPA (100=total damage to plant; 0=no damage to plant)): 100%; pest or weed control at 500 g/ha (Lolium perenne (LOLPE); Application Rate 500 g/Ha, Method A, read-out: Control of weed species after post-emergence application, LOLPE (100=total damage to plant; 0=no damage to plant)): 30%; pest or weed control at 500 g/ha ([5]; Application Rate 500 g/Ha, Method A, read-out: Control of weed species after post-emergence application, CHEAL (100=total damage to plant; 0=no damage to plant)): 100%; pest or weed control at 500 g/ha (Setaria faberi (SETFA); Application Rate 500 g/Ha, Method A, read-out: Control of weed species after post-emergence application, SETFA (100=total damage to plant; 0=no damage to plant)): 70%; pest or weed control at 500 g/ha ([6]; Application Rate 500 g/Ha, Method A, read-out: Control of weed species after post-emergence application, ECHCG (100=total damage to plant; 0=no damage to plant)): 80%; pest or weed control at 500 g/ha (Eleusine indica (ELEIN); Application Rate 500 g/Ha, Method A, read-out: Control of weed species after post-emergence application, ELEIN (100=total damage to plant; 0=no damage to plant)): 90%; pest or weed control at 500 g/ha ([7]; Application Rate 500 g/Ha, Method A, read-out: Control of weed species after post-emergence application, IPOHE (100=total damage to plant; 0=no damage to plant)): 70%; pest or weed control at 500 g/ha ([8]; Application Rate 500 g/Ha, Method A, read-out: Control of weed species after post-emergence application, DIGSA (100=total damage to plant; 0=no damage to plant)): 50%

— patent US20220125051A1, “PRE-HARVEST DESICCATION METHOD” (SYNGENTA CROP PROTECTION AG, priority 2019, published 2022)
